Test results published in patent publication US20260283925A1, “NOVEL PEPTIDE HAVING ACTIVITY OF RETARDING DEGRADATION OF HYALURONIC ACID AND USES THEREOF” (CAREGEN CO., LTD., priority 2023, published 2026).

How the values were obtained:
[1] = Delay of hyaluronic acid degradation by reactive oxygen species in BDDE-cross-linked hyaluronic acid filler (Congo Red diffusion, absorbance 500 nm); settings: 37° C., FIG. 6
Description: A 1,4-Butanediol diglycidyl ether (BDDE)-cross-linked hyaluronic acid filler with or without the peptide of Preparation Example 1 was prepared, and Congo Red and hyaluronidase (HAdase) as absorbing dyes were prepared. 20 μL of 1 mM Congo Red was added to each 1.5 mL eppendorf tube, and 100 μL each of the peptide-free filler (control filler) and the peptide-containing filler were added on the absorbing dye. Each was treated with 350 μL of 500 mM hydrogen peroxide (H2O2). Each tube was placed in an incubator at 37° C., and 100 μL of the sample supernatant was collected at time points of 1 hour, 3 hours, 6 hours, 24 hours, 48 hours, and 72 hours and transferred to 96-wells. The absorbance was measured at 500 nm using a microplate reader (SpectraMax iD3, Molecular devices, USA). As above, BDDE-cross-linked hyaluronic acid filler samples with or without the peptide were prepared, and the degree of degradation of hyaluronic acid filler by reactive oxygen species was compared depending on the presence or absence of peptide. The degree of degradation of hyaluronic acid filler was measured by the change in absorbance due to the diffusion of dye. That is, the principle that the flowability of the sample increases when hyaluronic acid is degraded by reactive oxygen species and thus the diffusion of the dye increases was utilized.

hyaluronidase (HAdase) = assay: Delay of hyaluronic acid degradation by hyaluronidase in BDDE-cross-linked hyaluronic acid filler (Congo Red diffusion, absorbance 500 nm); type: biochemical; settings: 24 hours after treatment with hyaluronidase, 37° C., FIG. 4
Description: A 1,4-Butanediol diglycidyl ether (BDDE)-cross-linked hyaluronic acid filler with or without the peptide of Preparation Example 1 was prepared, and Congo Red and hyaluronidase (HAdase) were prepared as absorbing dyes. 20 μL of 1 mM Congo Red was added to a 1.5 mL eppendorf tube, and 100 μL each of the peptide-free filler (control filler) and the peptide-containing filler were added on the absorbing dye. Each was treated with 350 μL of 0.15 mg/mL (108 units) of hyaluronidase. Each tube was placed in an incubator at 37° C., and 100 μL of the sample supernatant was collected at time points of 6 and 24 hours and transferred to a 96-well. The absorbance was measured at 500 nm using a microplate reader (SpectraMax iD3, Molecular Devices, USA). As above, BDDE-cross-linked hyaluronic acid filler samples with or without the peptide were prepared, and the degree of degradation of the hyaluronic acid filler by hyaluronidase was compared depending on the presence or absence of the peptide. The degree of degradation of the hyaluronic acid filler was measured by the change in absorbance according to the diffusion of the dye. That is, the principle, in which the flowability of the sample increases when hyaluronic acid is degraded by the degradation enzyme, thereby increasing the diffusion of the dye, was utilized.

[2] = test system: HaCaT cells (human keratinocyte cell line); assay: Promotion of collagen and hyaluronic acid (HA) expression, ELISA of culture supernatant; type: cell-based; settings: 50 μM to 200 μM, 72 hours, FIG. 2
Description: (§1) NIH3T3 cells (mouse fibroblast) and HaCaT cells (human keratinocyte cell line) were seeded at a density of 1×10^4 cells/well in a 24-well plate and cultured for 24 hours. The cells were washed once with serum-free DMEM medium. Different amounts of peptides were added to 500 μL of serum-free DMEM medium to prepare peptide medium solutions having concentrations of 50 μM, 100 μM, and 200 μM, and the washed cells were treated with the prepared peptide medium solutions. As a positive control, 100 nM […] was used in NIH3T3 cells and 100 nM IGF-1 was used in HaCaT cells. The treated cells were then cultured in a CO2 incubator at 37° C. for 72 hours. The cell culture liquid was collected, centrifuged, and the supernatant was transferred to a tube. The obtained supernatant was subjected to ELISA analysis using the Collagen ELISA kit (Abcam, Cat No.: ab210579, UK) and HA ELISA kit (ECHELON Biosciences, Cat No.: K-1200, USA), respectively.

[3] = test system: NIH3T3 cells (mouse fibroblast); assay: as above; type: cell-based; settings: 50 μM to 200 μM, 72 hours, FIG. 2
Description: as §1

[4] = Thermal stability of peptide (HPLC area); type: physicochemical; settings: 1000 ppm solution, 25° C. and 50° C., 72 hours, FIG. 7a
Description: The evaluation of thermal stability was performed as follows. A diluted solution of the peptide of Preparation Example 1 at a concentration of 1000 ppm was prepared, dispensed into 50 mL conical tubes, and placed in an incubator at 25° C. and 50° C. After 72 hours, 1 mL of each sample was filtered through a 0.22 μm filter. The area values were compared at 25° C. based on pH 7 measured by HPLC.

[5] = Delay of hyaluronic acid degradation by reactive oxygen species in hyaluronic acid solution (viscosity, rheometer); settings: 1.5 wt % hyaluronic acid in PBS, peptide 100, 1000, 5000 ppm, 500 mM H2O2, 60 and 180 minutes, FIG. 5
Description: Hyaluronic acid was dissolved in PBS to a concentration of 1.5 wt % and hydrated, and 10 g of this solution was dispensed into each conical tube. Peptide solutions were added to the dispensed hyaluronic acid solutions so that the final peptide concentrations were 0 ppm (no addition), 100 ppm, 1000 ppm, and 5000 ppm, respectively. 2 mL of 500 mM hydrogen peroxide (H2O2) was added to each. Viscosity was measured using a rheometer (single shear stress) by sampling at 0, 30, 60, and 180 minutes to compare the viscosity values according to the peptide concentration. As above, 1.5 wt % hyaluronic acid solutions containing peptides at each concentration were treated with hydrogen peroxide to maintain the degradation reaction by reactive oxygen species for 60 and 180 minutes, thereby degrading hyaluronic acid. After the degradation reaction, the viscosity of each hyaluronic acid solution was measured to confirm the degradation delaying efficacy.

[6] = pH stability of peptide (HPLC area); type: physicochemical; settings: 1000 ppm solution titrated to pH 4, pH 7, pH 10, HPLC area relative to pH 7, FIG. 7b
Description: The evaluation of pH stability was performed as follows. A diluted solution of the peptide of Preparation Example 1 at a concentration of 1000 ppm was prepared, and the initial pH value of the solution was measured (pH=3.21). 0.5 M NaOH was added so as to titrate the pH of the solution to pH 4, pH 7, and pH 10, respectively. Each sample was filtered through a 0.22 μm filter. The area values were compared based on pH 7 measured by HPLC.

[7] = test system: HaCaT cells (human keratinocyte cell line); assay: Cell proliferation analysis (MTT); type: cell-based; settings: peptide 1.6-1000 μM, 72 hours, FIG. 1
Description: (§2) NIH3T3 cells (mouse fibroblast) and HaCaT cells (human keratinocyte cell line) were seeded at a density of 1×10^4 cells/well in a 96-well plate and cultured for 24 hours. The cells were washed once with serum-free DMEM medium. Different amounts of peptides were added to 200 μL of serum-free DMEM medium to prepare peptide medium solutions having concentrations of 1.6 μM, 8 μM, 40 μM, 200 μM, and 1000 μM, and the prepared peptide medium solutions were treated to the washed cells. Then, the treated cells were cultured in a CO2 incubator at 37° C. for 72 hours, washed twice with PBS, and MTT (Sigma, Cat. No.: M2003, USA) solution was dispensed into each well to a final concentration of 0.5 mg/mL. Then, after blocking light, the cells were cultured in a CO2 incubator at 37° C. for 4 hours. The absorbance was measured at 540 nm using a microplate reader (SpectraMax iD3, Molecular devices, USA).

[8] = test system: NIH3T3 cells (mouse fibroblast); assay: Cell proliferation analysis (MTT); type: cell-based; settings: peptide 1.6-1000 μM, 72 hours, FIG. 1
Description: as §2

[9] = test system: hyaluronidase from bovine testes; assay: Delay of hyaluronic acid degradation by hyaluronidase in hyaluronic acid solution (viscosity, rheometer); type: biochemical; settings: 1.5 wt % hyaluronic acid in PBS
Description: Hyaluronic acid was dissolved in PBS to a concentration of 1.5 wt % and hydrated, and 10 g of this solution was dispensed into each conical tube. Peptide solutions were added to the dispensed hyaluronic acid solutions so that the final peptide concentrations were 0 ppm (no addition), 100 ppm, 1000 ppm, and 5000 ppm, respectively. 2 mL of hyaluronic acid degrading enzyme (hyaluronidase from bovine testes, Hadase, Sigma) was added to each conical tube. Viscosity was measured using a rheometer (single shear stress) by sampling at 0 and 30 minutes to compare the viscosity values according to the peptide concentration. As above, the 1.5 wt % hyaluronic acid solution containing the peptides at each concentration was treated with hyaluronidase, and the enzymatic reaction was maintained for 30 minutes to decompose hyaluronic acid. After the degradation reaction, the viscosity of the hyaluronic acid solution was measured to confirm the degradation delay efficacy.

improvement of degradation delay versus peptide-free filler ([1]; 24 hours after treatment with 500 mM hydrogen peroxide): ≥ 50% | effect of delaying degradation ([1]; treated 48 hours with 500 mM hydrogen peroxide, filler without peptides mostly degraded): 85% | improvement of delay of degradation versus peptide-free filler (hyaluronidase (HAdase)): ≥ 15% | difference in the degradation delay efficacy of 1000 ppm and 5000 ppm ([9]; hyaluronidase 30 minutes): not significant
Sequence: KIWNLEPSRNGT (H2N-Lys-Ile-Trp-Asn-Leu-Glu-Pro-Ser-Arg-Asn-Gly-Thr-COOH) [peptide having SEQ ID NO: 1]
collagen expression ([2]; Collagen ELISA): significant increase in collagen expression | hyaluronic acid (HA) expression ([2]; HA ELISA): increase in hyaluronic acid (HA) expression | collagen expression ([3]; Collagen ELISA): significant increase in collagen expression | hyaluronic acid (HA) expression ([3]; HA ELISA): increase in hyaluronic acid (HA) expression | thermal stability [4]: stable even at a high temperature of 50 °C | degradation delaying efficacy (viscosity of hyaluronic acid solution after hydrogen peroxide) [5]: degradation of hyaluronic acid was delayed as the concentration of peptide increased | pH stability [6]: stable even at a high temperature of 50 °C and in the range of pH 4 to pH 10 | effect of promoting cell proliferation [7]: significant effect of promoting cell proliferation | effect of promoting cell proliferation [8]: significant effect of promoting cell proliferation | degradation delay efficacy (viscosity of hyaluronic acid solution after hyaluronidase) ([9]; peptide 100, 1000, 5000 ppm, 30 minutes, FIG. 3): degradation of hyaluronic acid was delayed as the concentration of the peptide increased
